For one assay, the system named is IPF disease progression. Particulars: patients with mild-moderate disease; cited from earlier work.
For a further assay, the target named is T1, ALK5 (Homo sapiens, UniProt P36897).
T1 sequence (P36897 34-503): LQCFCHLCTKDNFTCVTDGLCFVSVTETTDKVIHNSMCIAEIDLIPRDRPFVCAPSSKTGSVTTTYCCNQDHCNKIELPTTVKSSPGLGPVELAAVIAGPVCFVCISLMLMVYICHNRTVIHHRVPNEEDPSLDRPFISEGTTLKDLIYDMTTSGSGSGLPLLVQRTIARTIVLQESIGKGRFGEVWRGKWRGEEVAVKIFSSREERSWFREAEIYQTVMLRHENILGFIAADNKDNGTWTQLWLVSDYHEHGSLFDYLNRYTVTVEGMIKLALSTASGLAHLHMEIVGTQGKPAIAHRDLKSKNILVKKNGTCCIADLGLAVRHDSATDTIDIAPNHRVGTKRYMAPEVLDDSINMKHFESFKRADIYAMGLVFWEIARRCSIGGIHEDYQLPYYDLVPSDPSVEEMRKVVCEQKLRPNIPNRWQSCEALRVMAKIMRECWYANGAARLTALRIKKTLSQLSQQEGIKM
The experiment in a line: recombinant kinase assays (IC50 and Ki). Type of assay: biochemical. Particulars: versus Compound N. From the text: Compound N was compared to Compound C in a number of in vitro assays.

Consider `COC(=O)c1ccc2c(c1)NC(=O)/C2=C(\Nc1ccc(N(C)C(=O)CN2CCN(C)CC2)cc1)c1ccccc1` [nintedanib], for which, in the assay on IPF disease progression, the “reduced risk of IPF disease progression” value is listed as 50%.
As to `Cc1ccc(=O)n(-c2ccccc2)c1` [pirfenidone], in the assay with IPF disease progression, the “reduced risk of IPF disease progression” value is listed as 50%.
With `CNCCOc1ccc(-c2cc(-c3c[nH]nc3-c3cccc(C)n3)ccn2)cc1` [Compound C, N-methyl-2-(4-(4-(3-(6-methylpyridin-2-yl)-1H-pyrazol-4-yl)pyridin-2-yl)phenoxy)ethan-1-amine], the “fold more potent than Compound N in the kinase assays” value on ALK5 stood at 10 fold.

(Values after patent US20230090552A1, “ALK5 INHIBITOR CONJUGATES AND USES THEREOF” (Synthis Therapeutics, Inc., priority 2020, published 2023).)
